Test results published in patent US6946480B2, “Glutaminyl based DPIV inhibitors” (priority 2002, dated 2005).

What was measured:
[1] = Plasma stability (half-life of inhibitory potency in human plasma); type: in vitro ADME
Description: In order to investigate the stability of glutaminyl pyrrolidine or glutaminyl thiazolidine in human plasma, the activity of DPIV in plasma was determined at a defined time. The average DPIV activity in human plasma was determined as 43.69 U/ml. In the working solution, the plasma was diluted in 0.9% NaCl to fix the DPIV activity level at 25 U/ml.
Plasma and glutaminyl pyrrolidine or glutaminyl thiazolidine in different concentrations (5*10^−5, 2.5*10^−5, 1.25*10^−5M in plasma) were incubated at 37° C. At defined time points samples were taken using a pipette roboter (Gilson 215, Liquid handler, Gilson) and transferred in a microtiter plate containing 5*10^−5M glycylprolylaminomethylcoumarine in 0.9% NaCl+015% Brij per well. After 6 min the reaction was stopped by addition of isoleucylthiazolidine (5*10^−5M in 0.9% NaCl solution).
Fluorescence measurement was performed against 0.9% NaCl in plasma (reference standard) using a plate reader (HTS7000plus, Applied Biosystems, Weiterstadt, Germany). The half-life of the inhibitory potency of glutaminyl pyrrolidine or glutaminyl thiazolidine was calculated by plotting the enzyme activity versus reaction time.

diabetic Zucker rats = assay: Dose escalation study with oral glucose tolerance test in fatty Zucker rats; type: in vivo, Zucker rats (fa/fa); conditions: for effect on glucose tolerance (OGTT): 2 g/kg glucose
Description: N=30 male Zucker rats (fa/fa), mean age 11 weeks (5-12 weeks), mean body weight 350 g (150-400 g), were purchased from Charles River (Sulzfeld, Germany). After delivery they were kept for >12 weeks until nearly all fatty Zucker rats had the characteristics of manifest diabetes mellitus. A group of N=8 animals were recruited for testing three escalating doses of glutaminyl pyrrolidine vs. placebo (saline).
Animals were single-caged under standardized conditions with controlled temperature (22±2° C.) on a 12/12 hours light/dark cycle (light on at 06:00 AM). Sterile standard pelleted chow (ssniff® Soest, Germany) and tap water acidified with HCl were allowed ad libitum.
Fatty Zucker rats of 24-31 weeks (mean: 25 weeks) age, adapted to the housing conditions, were well prepared for the study.
Catheters were implanted into the carotid artery of fatty Zucker rats under general anaesthesia (i.p. injection of 0.25 ml/kg b.w. Rompune® [2%], BayerVital, Germany and 0.5 ml/kg b.w. Ketamin 10, Atarost GmbH & Co., Twistringen, Germany). The animals were allowed to recover for one week. The catheters were flushed with heparin-saline (100 IU/ml) three times per week.
Placebo (1 ml saline, 0.154 mol/l) or escalating doses of glutaminyl pyrrolidine (5, 15 and 50 mg/kg b.w.) were administered to groups of N=8 fatty Zucker rats. 375 mg of glutaminyl pyrrolidine were dissolved in 1000 μl DMSO (E. Merck, Darmstadt; Germany [Dimethyl sulfoxide p.a.]). 10 ml saline were added and 1 ml aliquots, each containing 34.09 mg of glutaminyl pyrrolidine, were stored at −20° C. For preparation of the test substance, dose dependent aliquots were diluted in saline.
After overnight fasting, placebo or test substance were administered to the fatty Zucker rats via feeding tube orally (15 G, 75 mm; Fine Science Tools, Heidelberg, Germany) at −10 min An oral glucose tolerance test (OGTT) with 2 g/kg b.w. glucose (40% solution, B. Braun Melsungen, Melsungen, Germany) was administered at ±0 min via a second feeding tube. Venous blood samples from the tail veins were collected at −30 min, −15 min, ±0 min and at 5, 10, 15, 20, 30, 40, 60, 90 and 120 min into 20 μl glass capillaries, which were placed in standard tubes filled with 1 ml solution for blood glucose measurement.
Glucose levels were measured using the glucose oxidase procedure (Super G Glucose analyzer; Dr. Müller Gerätebau, Freital, Germany).
Statistical evaluations and graphics were performed with PRISM® 3.02 (GraphPad Software, Inc.). All parameters were analysed in a descriptive manner including mean and SD.
N=30 male Zucker rats (fa/fa), mean age 11 weeks (5-12 weeks), mean body weight 350 g (150-400 g), were purchased from Charles River (Sulzfeld, Germany). […]

- half-life of the inhibitory potency in human plasma ([1]; 37° C., 5*10^−5, 2.5*10^−5, 1.25*10^−5M): no half-time could be determined
- stability in human plasma ([1]; over 22 hours): stable in human plasma over 22 hours
SMILES: NC(=O)CC[C@H](N)C(=O)N1CCCC1 [glutaminyl pyrrolidine]
- effect on glucose tolerance (OGTT) (diabetic Zucker rats; 5 mg/kg b.w. oral): limited improvement of glucose tolerance
- effect on blood glucose levels over escalating doses (OGTT) (diabetic Zucker rats; 5 mg/kg, 15 mg/kg and 50 mg/kg b.w. oral): dose dependent lowering of elevated blood glucose levels
- effect on glucose tolerance (OGTT) (diabetic Zucker rats; 15 mg/kg b.w. oral): Significant lowering of elevated blood glucose levels
- effect on glucose tolerance (OGTT) (diabetic Zucker rats; 50 mg/kg b.w. oral): Significant lowering of elevated blood glucose levels
